Experimental findings from paper PMC3580017 (Journal of natural products, 2013) are described below.

The subject of this test is HT-29 human colon cancer cells. The test can be described thus: Cytotoxicity against HT-29 human colon cancer cells. The test is classed as cell-based. The note with it: HT-29 versus CCD-112CoN.

Take `CCCC/C=C/C=C/C=C/[C@@H]1CC[C@@H](O)[C@H](C)N1C` [Compound 1, (2S,3R,6S)-6-((1E,3E,5E)-deca-1,3,5-trien-1-yl)-1,2-dimethylpiperidin-3-ol]: the “selectivity ratio for cancerous colon cells versus normal colon cells” value is “approximately 4”.
